“And” between values parts separate entries of the source, which are not always exact repeats. Equal entries are not always repeated. Square brackets hold non-standard residues; d marks the D form. Ends that are not written are not given here. Phe(4-F) = N[C@@H](Cc1ccc(F)cc1)C(=O)O; Gla = N[C@@H](CC(C(=O)O)C(=O)O)C(=O)O; Cha = N[C@@H](CC1CCCCC1)C(=O)O

The first test addresses T1, IL-6 (Homo sapiens, UniProt P05231).
T1 construct: purchased R&D Systems BT7270B
As to the kind of experiment: Biacore surface plasmon resonance binding of peptides to immobilised IL-6.
Details: not given
Excerpt: Two DNA fragments were amplified from a synthetic fragment of the IL-6R. The 5′ fragment was amplified with forward primer and a mixture of 432 reverse primers, each containing an overhang of 6 codons. The 3′ fragment was amplified with a mixture of 432 forward primers, also containing overhangs of six degenerate codons and the reverse primer. Either the first or the second nucleotide of each codon was replaced with a degenerate base. Following PCR amplification, DNA fragments were phosphorylated and ligated leading to various sequence rearrangements shown at the bottom of the FIG. 3. Four hundred thirty-two forward and reverse oligos with an overhang of 6 codons from the IL-6R binding domain were used for PCR. A degenerate nucleotide was inserted at the first or second position of each codon. When ligated, these sequences generated a library of 1×10^13 different DNA sequences. The library of DNA sequences was taken through eight rounds of mRNA Display generating a peptide library. Eighteen of the most abundant peptides in the peptide library were synthesized in a linear form and tested for binding to IL-6 using Biacore. One of the peptides (#9) (“Peptide 9”) from the peptide library, with the sequence of […] The twelve non-terminal residues represent the PepFusion library-derived DNA sequences, while N-terminal serine and C-terminal glycine come from the flanking linkers and were kept as a precaution, in case linker sequences contributed to peptide interaction with its target.
Binding reactions were performed in HBS-P/2% DMSO buffer (10 mM Hepes, pH 7.4, 150 mM NaCl, 0.05% P-20, 2% DMSO), which was filtered through […] filters and degassed before use. Biotinylated recombinant human IL-6 (IL-6-Biotin) was bound to the surface of a Biacore SA sensor chip of a Biacore T200 surface plasmon resonance unit as follows. The streptavidin surface of the chip (flow cells 1 and 2) was activated by injecting 20 μl of 1 M NaCl/50 mM NaOH at 20 μl/min, in 3 pulses. Biotinylated Recombinant Human IL6 was diluted with HBS-P buffer and an aliquot of 100 μl (2 micrograms/ml) was injected into flow cell 2 at 5 microliters/min to yield a signal of 1400 response units (RU) (10 microliters were injected). Any remaining activated residues on the streptavidin surface of flow cells 1 and 2 were blocked with 30 microliters 500 nM free Biotin.
(§1) Affinity scouting assay was performed at a flow rate of 30 microliters/min at 25° C. The analyte (60 microliter aliquots of peptides, at concentrations of 20 μM in HBS-P/2% DMSO buffer) was injected into flow cells 1 and 2 and the association reaction was recorded. The surface was then washed with HBS-P/2% DMSO for 3 min and the dissociation of the analyte from the bound IL6 was followed over time. The surfaces of the flow cells were regenerated with 30 microliters of 10 mM NaOH, followed 50 microliters of HBS-P/2% DMSO buffer.
as §1, with “Kinetics analysis of binding was performed” for “Affinity scouting assay was performed”, “concentrations of 0, 1.25 μM, 2.5 μM, 5 μM, 10 μM and 20 μM” for “concentrations of 20 μM”, “DMSO buffer. Sensorgrams were analyzed using BIAeveluation 3.2.1 software (Cytiva). Values from the reference flow cell were subtracted to obtain the values for specific binding. Data were globally fitted to the Langmuir model for a 1:1 mass transfer binding.” for “DMSO buffer.”
In the case of “FD(Cha)DIHLL(4F)LPTEWEK(Cla)KNEE (FD[Cha]DIHLL[Phe(4-F)]LPTEWEK[Gla]KNEE) [PN-2519, reference compound]”, the “binding to IL-6, in words” value is “no activity”.
Regarding “INTLLSEINSILLDIISLL [RA07, published control peptide described in Kobayashi et al., Mol Biotechnol 2011, reference compound]”, the “binding to IL-6, in words” value is on record as “did not bind”.
Still for that read-out and setting: the value for SVRDLLRRMCHCVG [Peptide 67] was “no binding”.
Still for that read-out and setting: the value for “FD(hL)DIHLLELPTEWEKDKNEE [PN-1974(2), peptide PN-1974 with termini protected by acetylation and amidation, reference compound]” was “eliminated its activity”; that for “SVKDLQHGLRHVVG [Peptide C1, control peptide homologous to peptide 9, devoid of any mutations; two unmutated fragments of IL-6R, reference compound]” was “no binding”.

The test is the same for the next values; noted with them: KD (nM) P < 0.05, Table 1; N and C termini not protected; cells printed in μM.
Broadly, the Kd is the constant that tells how readily two partners part at equilibrium. Turning to “GNSRDLLRRMCHIVG [Peptide 42, GNSRDLLRRMCHIVG]”, the Kd is more than 10000 nM.

Still in this test, the particulars now being: Table 1; N and C termini not protected; cells printed in μM; read-out: KD (nM) P < 0.05.
“SVRDLLRRMCHPRLG [Peptide 46, SVRDLLRRMCHPRLG]”: the Kd was more than 10000 nM.
“SVRDNFHRMCHIVG [Peptide 30, SVRDNFHRMCHIVG]”: the Kd was more than 10000 nM.
Take “SNYTLLRRMCHIVG [Peptide 36, SNYTLLRRMCHIVG]”: the Kd was more than 10000 nM.
Take “SVHIHLRRMCHIVG [Peptide 34, SVHIHLRRMCHIVG]”: the Kd is more than 10000 nM.
On to “SVRDLPRIMCHIVG [Peptide 31, SVRDLPRIMCHIVG]”, for which the Kd was more than 10000 nM.
The same measure, in the same setting: the value for “SVRDLHKMMCHIVG [Peptide 25, SVRDLHKMMCHIVG]” was more than 10000 nM; that for “LGHRDLLRRMCHIVG [Peptide 29, LGHRDLLRRMCHIVG]” was more than 10000 nM; that for “SVRIYLRRMCHIVG [Peptide 20, SVRIYLRRMCHIVG]” was more than 10000 nM.
On the same count and under the same terms, the figure for “SVRDLLRMFCHIVG [Peptide 23, SVRDLLRMFCHIVG]” is more than 10000 nM; for “SVRDLLNRICHIVG [Peptide 21, SVRDLLNRICHIVG]” it is more than 10000 nM.
Still for that read-out and setting: the value for “SVSIHLRRMCHIVG [Peptide 32, SVSIHLRRMCHIVG]” was more than 10000 nM; that for “SVRDPHNRMCHIVG [Peptide 22, SVRDPHNRMCHIVG]” was more than 10000 nM.
As for “LEIRDLLRRMCHIVG [Peptide 26, LEIRDLLRRMCHIVG]”, the Kd was more than 10000 nM.
For “SVRDLLHGRCHIVG [Peptide 40, SVRDLLHGRCHIVG]”, the Kd is more than 10000 nM.

The same test, now with this note: Table 1; termini not protected.
Regarding “H-FAFRDLLRRMCHIVG-OH [Peptide 45, FAFRDLLRRMCHIVG]”, the “binding affinity compared with parent peptide 9, in words” value is “improved binding affinity”.
The same measure, in the same setting: the entry for “H-SVRDLIRMMCHIVG-OH [Peptide 33, SVRDLIRMMCHIVG]” is “improved binding affinity”.
For the substance “NERRDLLRRMCHIVG [Peptide 41, NERRDLLRRMCHIVG]”, the “binding affinity compared with parent peptide 9, in words” value is “reduced binding affinity”.
Still for that read-out and setting: the value for “H-ATIRDLLRRMCHIVG-OH [Peptide 38, ATIRDLLRRMCHIVG]” was “improved binding affinity”; that for “H-ETIRDLLRRMCHIVG-OH [Peptide 24, ETIRDLLRRMCHIVG]” was “improved binding affinity”; that for “SVRDLQKOMCHIVG (SVRDLQKQMCHIVG; not fully specified) [Peptide 44]” was “completely lost binding affinity”.
In the case of “H-SVRDLLRRMKVCVG-OH [Peptide 27, SVRDLLRRMKVCVG]”, the “binding affinity compared with parent peptide 9, in words” value is reported as “improved binding affinity”.
As to CVYRDLLRRMCHIVG [Peptide 35], the “binding affinity compared with parent peptide 9, in words” value is “completely lost binding affinity”.

The same test, now with this note: Table 2; N terminus acetylated, C terminus amidated; cells printed in μM; read-out: KD (nM) P < 0.05.
Turning to “Ac-TIRDLLRRMKHIVG-NH2 [Peptide 97, TIRDLLRRMKHIVG]”, the equilibrium dissociation constant (Kd) was more than 10000 nM.
Same read-out and setting: the value for “Ac-TIRDLIRMMKHIVG-NH2 [Peptide 99, TIRDLIRMMKHIVG]” was more than 10000 nM; that for “Ac-ATIRDLIRMMKHIVG-NH2 [Peptide 96, ATIRDLIRMMKHIVG]” was more than 10000 nM.
Take “Ac-FSVRDLLRMMKHIVG-NH2 [Peptide 86, FSVRDLLRMMKHIVG]”: the Kd was more than 10000 nM.
As for “Ac-SFRDLLRRMKHIVG-NH2 [Peptide 88, SFRDLLRRMKHIVG]”, the Kd is more than 10000 nM.
On the same count and under the same terms, the value for “Ac-FSFRDLLRRMKHIVG-NH2 [Peptide 91, FSFRDLLRRMKHIVG]” was more than 10000 nM; that for “Ac-TIRDLLRMMKHIVG-NH2 [Peptide 98, TIRDLLRMMKHIVG]” was more than 10000 nM; that for “Ac-ATIRDLLRMMKHIVG-NH2 [Peptide 95, ATIRDLLRMMKHIVG]” was more than 10000 nM.
With “Ac-FSFRDLIRMMCHIVG-NH2 [Peptide 74, FSFRDLIRMMCHIVG]”, the Kd was more than 10000 nM.
Same read-out and setting: the value for “Ac-ATIRDLLRRMKHIVG-NH2 [Peptide 94, ATIRDLLRRMKHIVG]” was more than 10000 nM; that for “Ac-FSVRDLLRRMKHIVG-NH2 [Peptide 85, FSVRDLLRRMKHIVG]” was more than 10000 nM.
Turning to “Ac-SFRDLLRMMKHIVG-NH2 [Peptide 89, SFRDLLRMMKHIVG]”, the Kd was more than 10000 nM.
In the case of “Ac-FSFRDLLRMMKHIVG-NH2 [Peptide 92, FSFRDLLRMMKHIVG]”, the Kd is more than 10000 nM.

Staying with this test, now noted: Table 2; termini protected.
Take “Ac-FSFRDLLRMMCHIVG-NH2 [Peptide 80, FSFRDLLRMMCHIVG]”: the “affinity compared with the parent sequence, in words” value is listed as “not improved”.
On to “Ac-SVRDLLRRMCVIVG-NH2 [Peptide 66, SVRDLLRRMCVIVG]”, for which the “affinity compared with the parent sequence, in words” value is recorded as “slightly better affinity”.
Turning to “Ac-FAFRDLLRMMCHIVG-NH2 [Peptide 75, FAFRDLLRMMCHIVG]”, the “affinity compared with the parent sequence, in words” value is “not improved”.
Same read-out and setting: the entry for “Ac-TIRDLLRRMCHIVG-NH2 [Peptide 71, TIRDLLRRMCHIVG]” is “greatly improved”; for “Ac-SVRDLLRRMKHIVG-NH2 [Peptide 65, SVRDLLRRMKHIVG]” it is “slightly better affinity”.
In the case of “Ac-SVRDLLRMMCHIVG-NH2 [Peptide 69, SVRDLLRMMCHIVG]”, the “affinity compared with the parent sequence, in words” value is recorded as “no significant effect”.
The same measure, in the same setting: the entry for “Ac-SVRDLIRRMCHIVG-NH2 [Peptide 68, SVRDLIRRMCHIVG]” is “lowered affinity”.

The same test, now with this note: termini not protected; read-out: KD.
Turning to “H-SVRDLLRRMCHIVG-OH [Peptide 9, SVRDLLRRMCHIVG]”, the Kd came to 2500 nM.

The same test, now with this note: termini protected (acetylated, amidated); read-out: KD.
“Ac-FAFRDLIRMMKVCVG-NH2 [Peptide 79, FAFRDLIRMMKVCVG]”: the Kd stood at 247 nM.
The same measure, in the same setting: the value for “Ac-ATIRDLIRMMKVCVG-NH2 [Peptide 82, ATIRDLIRMMKVCVG]” was 108 nM.
Still for that read-out and setting: the figure for “Ac-FAFRDLIRMMCVIVG-NH2 [Peptide 78, FAFRDLIRMMCVIVG]” is not above 1500 nM; for “Ac-FAFRDLIRMMCHIVG-NH2 [Peptide 58, FAFRDLIRMMCHIVG]” it is ~100 nM and 71 nM; for “Ac-FAFRDLIRMMKHIVG-NH2 [Peptide 77, FAFRDLIRMMKHIVG]” it is ≤ 1500 nM and 405 nM.
On the same count and under the same terms, the value for “Ac-ATIRDLIRMMCHIVG-NH2 [Peptide 51, ATIRDLIRMMCHIVG]” was ~100 nM and 128 nM; that for “Ac-ATIRDLIRMMKVIVG-NH2 [Peptide 83, ATIRDLIRMMKVIVG]” was 563 nM.
As to “Ac-FSFRDLLRRMCHIVG-NH2 [Peptide 72, FSFRDLLRRMCHIVG]”, the Kd stood at 27 nM.
Turning to “Ac-FAFRDLIRMMKVIVG-NH2 [Peptide 76, FAFRDLIRMMKVIVG]”, the Kd was not above 1500 nM.

The record behind these values is patent publication US20250277208A1, “Method of Peptide Library Construction and Peptides Thereof” (Alcamena Stem Cell Therapeutics, LLC, priority 2024, published 2025).
